Measurements as given in PMC7179297, “Preclinical Antimalarial Combination Study of M5717, a Plasmodium falciparum Elongation Factor 2 Inhibitor, and Pyronaridine, a Hemozoin Formation Inhibitor” (Antimicrobial Agents and Chemotherapy, 2020).

System: P. falciparum NF54 strain
Test: [3H]hypoxanthine incorporation assay, individual drugs
Type: cell-based
Details: Plasmodium falciparum, 72 h
Procedure: IC50 and drug interaction studies were performed as previously described ([27], [28]). […] Cultures were harvested onto glass fiber filters, washed, and the radioactivity was counted using a MicroBetaplate liquid scintillation counter and recorded as counts per minute (cpm) per well. Results are expressed as a percentage of the untreated controls (see the supplemental material for more details). page 2: 25 In vitro isobolograms 26 Compounds were tested against intraerythrocytic forms of P. falciparum derived from asynchronous stock cultures 27 of lab strain NF54 (Schiphol airport strain of unknown origin), as previously described.i,ii The culture medium was […] 29 mM HEPES, 25 mM NaHCO3 (pH 7.3), 0.36 mM hypoxanthine and 100 μg/mL neomycin. Human type A+ 30 erythrocytes served as host cells. […] 31 in humidified modular chambers. Testing of the individual drugs was carried out in 96-well microtiter plates. The 32 compounds were dissolved in DMSO (10 mg/mL), prediluted in hypoxanthine-free culture medium and titrated in […] After addition of an equal volume of parasite culture with a parasitemia of […] Parasite growth was measured by the incorporation of radiolabelled [3H]hypoxanthine (0.25 µCi in […] 37 assay duration) prior to the termination of the test. Cultures were harvested onto glass-fiber filters and washed with 38 distilled water. The radioactivity was counted using a MicroBetaplate liquid scintillation counter (Wallac, Zürich, 39 Switzerland) and the results recorded as counts per minute (cpm) per well at each drug concentration and expressed 40 as percentage of the untreated controls. Fifty percent inhibitory concentrations (IC50) were determined by linear 41 interpolation.v 42 43 For data interpretation, the IC50s of the drugs in combination were expressed as fractions of the IC50s of the drugs 44 alone. These fractions were called “Fractional Inhibitory Concentrations” (FIC) for drug A and for drug B, 45 respectively. 46 FIC Drug A = IC50 A (B) IC50 A […] 49 50 Formulation 51 Pyronaridine (tetraphosphate salt) and […] (succinate salt) were solubilized in a vehicle consisting of 70% […] 54 55 2

`O=C1C(O)=C([C@H]2CC[C@H](c3ccc(Cl)cc3)CC2)C(=O)c2ccccc21` [atovaquone] gave an EC50 of 0.0004 µM.
`[H]/N=C(\N/C(=N/[H])Nc1ccc(Cl)cc1)NC(C)C` [proguanil] gave an EC50 of 5.5 µM.
